Reference: patent publication US20260070945A1, “MACROCYCLIC IMMUNOMODULATORS” (Bristol-Myers Squibb Company, priority 2022, published 2026)
*1 amine or outer side, *2 acyl side, *3 side chain or, on linkers, in order; H or OH if unused. Where a SMILES comes first, the peptide text is derived from it. Bridges are numbered along the chain shown (N, C = ends). [ ]: non-standard residue; d: D form. The star is where a group is joined. ξ: configuration not given here. Phe(3-CF3) = N[C@@H](Cc1cccc(C(F)(F)F)c1)C(=O)O; Phe(4-COOH) = N[C@@H](Cc1ccc(C(=O)O)cc1)C(=O)O; Bip = N[C@@H](Cc1ccc(-c2ccccc2)cc1)C(=O)O; Phe(3-Me) = Cc1cccc(C[C@H](N)C(=O)O)c1; γGlu = O=C(O)[C@H](CCC(=O)[*:2])N[*:1]; NH(CH2)12COOH = O=C(O)CCCCCCCCCCCCN*; Val(3-OH) = CC(C)(O)[C@H](N)C(=O)O; dIle(3ξ) = CCC(C)[C@@H](N)C(=O)O; hArg = N=C(N)NCCCC[C@H](N)C(=O)O; 4Pal = N[C@@H](Cc1ccncc1)C(=O)O; 3Thi = N[C@@H](Cc1ccsc1)C(=O)O; Cha = N[C@@H](CC1CCCCC1)C(=O)O; Cit = NC(=O)NCCC[C@H](N)C(=O)O; Thr(3ξ) = CC(O)[C@H](N)C(=O)O; NMeNle = CCCC[C@H](NC)C(=O)O; hSer = N[C@@H](CCO)C(=O)O; Carboxymethyl = O=C(O)C*; NMeA = CN[C@@H](C)C(=O)O; Orn = NCCC[C@H](N)C(=O)O; dNMeA = CN[C@H](C)C(=O)O; Aun = NCCCCCCCCCCC(=O)O; Dab = NCC[C@H](N)C(=O)O; Dap = NC[C@H](N)C(=O)O; AEEA = NCCOCCOCC(=O)O

target: T1, PD-1/PD-L1 interaction (PE-labeled human PD-L1-Ig binding to Jurkat cell line over-expressing human PD-1) (Homo sapiens, UniProt Q15116); assay: Jurkat-PD-1 Cell Binding High-Content Screening Assay (CBA); conditions: Jurkat-hPD-1 cells, PE-labeled PD-L1-Ig 20 nM final; read-out: Jurkat HPD1 PDL1 IC50
T1 construct: expressed in transfected cells; host or cells: Jurkat
In short: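 High-content imaging read-out of PE-PD-L1-Ig binding (20 nM final, 1 h) to Jurkat-hPD-1 cells, after 2 h compound exposure at 37 °C in DMEM with 10% FCS. Nuclei counterstained with Hoechst 33342 after paraformaldehyde fixation.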

T1 sequence (Q15116 25-288): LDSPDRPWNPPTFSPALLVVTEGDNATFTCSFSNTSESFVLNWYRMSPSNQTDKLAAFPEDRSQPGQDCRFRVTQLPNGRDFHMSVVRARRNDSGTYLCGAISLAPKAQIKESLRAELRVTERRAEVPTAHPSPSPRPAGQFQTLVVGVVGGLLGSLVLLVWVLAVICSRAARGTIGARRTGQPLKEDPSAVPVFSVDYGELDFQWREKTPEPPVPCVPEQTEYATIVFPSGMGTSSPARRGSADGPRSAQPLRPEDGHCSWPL

Row | IC50 [nM] | Structure (SMILES)
1 | 15.2 | COC[C@@H]1NC(=O)CSC[C@@H](C(=O)N[C@@H](CCN)C(=O)NCCOCCOCC(=O)N[C@@H](CCC(=O)NCCOCCOCC(=O)NCCCCCCCCCCCCC(=O)O)C(=O)O)NC(=O)[C@H](CCC(=O)O)NC(=O)[C@H](C(C)C)NC(=O)[C@H](CC2CCCCC2)NC(=O)[C@H](CCN)NC(=O)[C@@H](CC(C)C)NC(=O)[C@H](C)N(C)C(=O)[C@H](CCC(N)=O)NC(=O)[C@H](Cc2ccc(-c3ccccc3)cc2)NC(=O)[C@H](Cc2ccc(C(=O)O)cc2)NC(=O)[C@H](Cc2cccc(C(F)(F)F)c2)NC(=O)[C@H](CC(=O)O)NC(=O)[C@H](Cc2ccc(OCC(=O)O)cc2)NC1=O [Example 1163] ({CH2CO}-S(Me)Y(Carboxymethyl)D[Phe(3-CF3)][Phe(4-COOH)][Bip]Q[NMeA][dL][Dab][Cha]VEC[Dab][AEEA][γGlu][AEEA]-{NH(CH2)12COOH}; thioether N-14)
2 | 269 | CCCC[C@H]1C(=O)N[C@H](CC(C)C)C(=O)N[C@@H](CCN)C(=O)N[C@@H](CC2CCCCC2)C(=O)N[C@@H](C(C)C)C(=O)N[C@@H](C(C)O)C(=O)N[C@H](C(=O)N[C@@H](CCCCN)C(=O)NCCOCCOCC(=O)NCCCCCCCCCCC(=O)O)CSCC(=O)N[C@@H](Cc2ccncc2)C(=O)N[C@@H](Cc2ccc(OCC(=O)O)cc2)C(=O)N[C@@H](CC(=O)O)C(=O)N[C@@H](Cc2c[nH]c3ccccc23)C(=O)N[C@@H](C(C)C)C(=O)N[C@@H](Cc2ccc(-c3ccccc3)cc2)C(=O)N[C@@H](CC(C)C)C(=O)N1C (stereo partly drawn) [Example 2115] ({CH2CO}-[4Pal]Y(Carboxymethyl)DWV[Bip]L[NMeNle][dL][Dab][Cha]V[Thr(3ξ)]CK[AEEA][Aun]-OH; thioether N-14)
3 | 8.5 | CC(C)C[C@@H]1NC(=O)[C@H](Cc2c[nH]c3ccccc23)NC(=O)[C@H](CC(=O)O)NC(=O)[C@H](Cc2ccc(OCC(=O)O)cc2)NC(=O)[C@H](CCCCNC(=N)N)NC(=O)CSC[C@@H](C(=O)NCC(=O)NCCOCCOCC(=O)N[C@@H](CN)C(=O)NCCCCCCCCCCC(=O)O)NC(=O)[C@H](CCCNC(N)=O)NC(=O)[C@H](C(C)C)NC(=O)[C@H](CC2CCCCC2)NC(=O)[C@H](CCN)NC(=O)[C@@H](CC(C)C)NC(=O)[C@H](C)N(C)C(=O)[C@H](C(C)C)NC(=O)[C@H](Cc2ccc(-c3ccccc3)cc2)NC1=O [Example 2178] ({CH2CO}-[hArg]Y(Carboxymethyl)DWL[Bip]V[NMeA][dL][Dab][Cha]V[Cit]CG[AEEA][Dap][Aun]-OH; thioether N-14)
4 | 40.4 | CC(C)C[C@@H]1NC(=O)[C@H](Cc2c[nH]c3ccccc23)NC(=O)[C@H](CC(=O)O)NC(=O)[C@H](Cc2ccc(OCC(=O)O)cc2)NC(=O)[C@H](Cc2ccc(OCC(=O)O)cc2)NC(=O)CSC[C@@H](C(=O)NCCOCCOCC(=O)NCCCCCCCCCCC(=O)O)NC(=O)[C@H](CO)NC(=O)[C@H](C(C)(C)O)NC(=O)[C@H](CC2CCCCC2)NC(=O)[C@H](CCN)NC(=O)[C@@H](CC(C)C)NC(=O)[C@H](C)N(C)C(=O)[C@H](C(C)C)NC(=O)[C@H](Cc2ccc(-c3ccccc3)cc2)NC1=O [Example 2444] ({CH2CO}-Y(Carboxymethyl)Y(Carboxymethyl)DWL[Bip]V[NMeA][dL][Dab][Cha][Val(3-OH)]SC[AEEA][Aun]-OH; thioether N-14)
5 | 8.1 | CC(C)C[C@@H]1NC(=O)[C@H](Cc2c[nH]c3ccccc23)NC(=O)[C@H](CC(=O)O)NC(=O)[C@H](Cc2ccc(C(=O)O)cc2)NC(=O)[C@H](Cc2ccc(OCC(=O)O)cc2)NC(=O)CSC[C@@H](C(=O)NCCOCCOCC(=O)NCCCCCCCCCCC(=O)O)NC(=O)[C@H](Cc2cnc[nH]2)NC(=O)[C@H](C(C)(C)O)NC(=O)[C@H](CC2CCCCC2)NC(=O)[C@H](CCN)NC(=O)[C@@H](CC(C)C)NC(=O)[C@H](C)N(C)C(=O)[C@H](C(C)C)NC(=O)[C@H](Cc2ccc(-c3ccccc3)cc2)NC1=O [Example 1121] ({CH2CO}-Y(Carboxymethyl)[Phe(4-COOH)]DWL[Bip]V[NMeA][dL][Dab][Cha][Val(3-OH)]HC[AEEA][Aun]-OH; thioether N-14)
6 | 13.1 | CCC(C)[C@H]1NC(=O)[C@H](Cc2ccc(-c3ccccc3)cc2)NC(=O)[C@H](CC(C)C)NC(=O)[C@H](Cc2c[nH]c3ccccc23)NC(=O)[C@H](CC(=O)O)NC(=O)[C@H](Cc2ccc(C(=O)O)cc2)NC(=O)[C@H](Cc2ccc(OCC(=O)O)cc2)NC(=O)CSC[C@@H](C(=O)NCCCCCCCCCCC(=O)O)NC(=O)[C@H](CCCCN)NC(=O)[C@H](C(C)C)NC(=O)[C@H](CC2CCCCC2)NC(=O)[C@H](CCN)NC(=O)[C@@H](CC(C)C)NC(=O)[C@@H](C)N(C)C1=O (stereo partly drawn) [Example 2236] ({CH2CO}-Y(Carboxymethyl)[Phe(4-COOH)]DWL[Bip][dIle(3ξ)][dNMeA][dL][Dab][Cha]VKC[Aun]-OH; thioether N-14)
7 | 24.9 | CC(=O)NCCCC[C@@H]1NC(=O)[C@H](Cc2ccc(-c3ccccc3)cc2)NC(=O)[C@H](Cc2ccc(O)cc2)NC(=O)[C@H](Cc2cccc(C)c2)NC(=O)[C@H](CC(=O)O)NC(=O)[C@H](Cc2ccc(OCC(=O)O)cc2)NC(=O)[C@H](Cc2ccc(OCC(=O)O)cc2)NC(=O)CSC[C@@H](C(=O)NCCOCCOCC(=O)NCCCCCCCCCCC(=O)O)NC(=O)[C@H](CCO)NC(=O)[C@H](C(C)C)NC(=O)[C@H](CC2CCCCC2)NC(=O)[C@H](CCN)NC(=O)[C@@H](CC(C)C)NC(=O)[C@H](C)N(C)C1=O [Example 2422] ({CH2CO}-Y(Carboxymethyl)Y(Carboxymethyl)D[Phe(3-Me)]Y[Bip]K(Ac)[NMeA][dL][Dab][Cha]V[hSer]C[AEEA][Aun]-OH; thioether N-14)
8 | 7.2 | Cc1cccc(C[C@@H]2NC(=O)[C@H](CC(=O)O)NC(=O)[C@H](Cc3ccc(C(=O)O)cc3)NC(=O)[C@H](Cc3ccc(OCC(=O)O)cc3)NC(=O)CSC[C@@H](C(=O)N[C@@H](CCN)C(=O)NCCOCCOCC(=O)NCCOCCOCC(=O)NCCCCCCCCCCCCC(=O)O)NC(=O)[C@H](CO)NC(=O)[C@H](C(C)(C)O)NC(=O)[C@H](CC3CCCCC3)NC(=O)[C@H](CCN)NC(=O)[C@@H](CC(C)C)NC(=O)[C@H](C)N(C)C(=O)[C@H](CCC(N)=O)NC(=O)[C@H](Cc3ccc(-c4ccccc4)cc3)NC(=O)[C@H](Cc3ccc(C(=O)O)cc3)NC2=O)c1 [Example 1105] ({CH2CO}-Y(Carboxymethyl)[Phe(4-COOH)]D[Phe(3-Me)][Phe(4-COOH)][Bip]Q[NMeA][dL][Dab][Cha][Val(3-OH)]SC[Dab][AEEA][AEEA]-{NH(CH2)12COOH}; thioether N-14)
9 | 10.9 | CC(C)C[C@@H]1NC(=O)[C@H](Cc2c[nH]c3ccccc23)NC(=O)[C@H](CC(=O)O)NC(=O)[C@H](Cc2ccc(OCC(=O)O)cc2)NC(=O)[C@H](CCCNC(=N)N)NC(=O)CSC[C@@H](C(=O)N[C@@H](CCCN)C(=O)NCCOCCOCC(=O)NCCCCCCCCCCC(=O)O)NC(=O)[C@H](CO)NC(=O)[C@H](C(C)C)NC(=O)[C@H](CC2CCCCC2)NC(=O)[C@H](CCN)NC(=O)[C@@H](CC(C)C)NC(=O)[C@H](C)N(C)C(=O)[C@H](C(C)C)NC(=O)[C@H](Cc2ccc(-c3ccccc3)cc2)NC1=O [Example 2139] ({CH2CO}-RY(Carboxymethyl)DWL[Bip]V[NMeA][dL][Dab][Cha]VSC[Orn][AEEA][Aun]-OH; thioether N-14)

same assay, conditions: PE-labeled PD-L1-Ig 20 nM final, Jurkat-hPD-1 cells; read-out: Jurkat HPD1 PDL1 IC50

Row | IC50 [nM] | Structure (SMILES)
10 | 41.2 | Cc1cccc(C[C@@H]2NC(=O)[C@H](CC(=O)O)NC(=O)[C@H](Cc3ccc(C(=O)O)cc3)NC(=O)[C@H](C(C)O)NC(=O)CSC[C@@H](C(=O)N[C@@H](CCN)C(=O)NCCOCCOCC(=O)NCCCCCCCCCCC(=O)O)NC(=O)[C@H](CCC(=O)O)NC(=O)[C@H](CO)NC(=O)[C@H](CC3CCCCC3)NC(=O)[C@H](CCN)NC(=O)[C@@H](CC(C)C)NC(=O)[C@H](C)N(C)C(=O)[C@H](Cc3ccc(C(=O)O)cc3)NC(=O)[C@H](Cc3ccc(-c4ccccc4)cc3)NC(=O)[C@H](Cc3ccc(C(=O)O)cc3)NC2=O)c1 (stereo partly drawn) [Example 2556] ({CH2CO}-[Thr(3ξ)][Phe(4-COOH)]D[Phe(3-Me)][Phe(4-COOH)][Bip][Phe(4-COOH)][NMeA][dL][Dab][Cha]SEC[Dab][AEEA][Aun]-OH; thioether N-14)
11 | 12.2 | CC(=O)NCCCC[C@@H]1NC(=O)[C@H](C(C)C)NC(=O)[C@H](CC2CCCCC2)NC(=O)[C@H](CCN)NC(=O)[C@@H](CC(C)C)NC(=O)[C@H](C)N(C)C(=O)[C@H](CCC(N)=O)NC(=O)[C@H](Cc2ccc(-c3ccccc3)cc2)NC(=O)[C@H](CC(C)C)NC(=O)[C@H](Cc2c[nH]c3ccccc23)NC(=O)[C@H](CC(=O)O)NC(=O)[C@H](Cc2ccc(OCC(=O)O)cc2)NC(=O)[C@H](Cc2ccsc2)NC(=O)CSC[C@@H](C(=O)N[C@@H](CCN)C(=O)NCCOCCOCC(=O)NCCCCCCCCCCC(=O)O)NC1=O [Example 2503] ({CH2CO}-[3Thi]Y(Carboxymethyl)DWL[Bip]Q[NMeA][dL][Dab][Cha]VK(Ac)C[Dab][AEEA][Aun]-OH; thioether N-14)
12 | 3.3 | CC(=O)NCCCC[C@@H]1NC(=O)[C@H](C(C)(C)O)NC(=O)[C@H](CC2CCCCC2)NC(=O)[C@H](CCN)NC(=O)[C@@H](CC(C)C)NC(=O)[C@H](C)N(C)C(=O)[C@H](CCC(N)=O)NC(=O)[C@H](Cc2ccc(-c3ccccc3)cc2)NC(=O)[C@H](Cc2ccc(C(=O)O)cc2)NC(=O)[C@H](Cc2cccc(C(F)(F)F)c2)NC(=O)[C@H](CC(=O)O)NC(=O)[C@H](Cc2ccc(OCC(=O)O)cc2)NC(=O)[C@H](Cc2ccc(OCC(=O)O)cc2)NC(=O)CSC[C@@H](C(=O)N[C@@H](CCN)C(=O)NCCCCCCCCCCCCC(=O)O)NC1=O [Example 2565] ({CH2CO}-Y(Carboxymethyl)Y(Carboxymethyl)D[Phe(3-CF3)][Phe(4-COOH)][Bip]Q[NMeA][dL][Dab][Cha][Val(3-OH)]K(Ac)C[Dab]-{NH(CH2)12COOH}; thioether N-14)
